Measured values published in publication PMC11137008, “Cryo-EM analysis reveals human SID-1 transmembrane family member 1 dynamics underlying lipid hydrolytic activity” (Communications Biology, 2024).

What was measured:
human SIDT1 (hSIDT1) [1] = molecular target: T1, human SIDT1 (hSIDT1) (Homo sapiens, UniProt Q9NXL6); assay: TLC fluorescence ceramidase assay; format: biochemical; conditions: labelled compound; 10 mM methyl beta-cyclodextrin required (cholesterol depletion); pH 8.0, 0.01% GDN, 37 °C, 3 h
T1 construct: full length; expressed in Expi293F cells by baculovirus; digitonin extraction, GDN micelle; N-glycosylated homodimer
T1 sequence (Q9NXL6 20-827): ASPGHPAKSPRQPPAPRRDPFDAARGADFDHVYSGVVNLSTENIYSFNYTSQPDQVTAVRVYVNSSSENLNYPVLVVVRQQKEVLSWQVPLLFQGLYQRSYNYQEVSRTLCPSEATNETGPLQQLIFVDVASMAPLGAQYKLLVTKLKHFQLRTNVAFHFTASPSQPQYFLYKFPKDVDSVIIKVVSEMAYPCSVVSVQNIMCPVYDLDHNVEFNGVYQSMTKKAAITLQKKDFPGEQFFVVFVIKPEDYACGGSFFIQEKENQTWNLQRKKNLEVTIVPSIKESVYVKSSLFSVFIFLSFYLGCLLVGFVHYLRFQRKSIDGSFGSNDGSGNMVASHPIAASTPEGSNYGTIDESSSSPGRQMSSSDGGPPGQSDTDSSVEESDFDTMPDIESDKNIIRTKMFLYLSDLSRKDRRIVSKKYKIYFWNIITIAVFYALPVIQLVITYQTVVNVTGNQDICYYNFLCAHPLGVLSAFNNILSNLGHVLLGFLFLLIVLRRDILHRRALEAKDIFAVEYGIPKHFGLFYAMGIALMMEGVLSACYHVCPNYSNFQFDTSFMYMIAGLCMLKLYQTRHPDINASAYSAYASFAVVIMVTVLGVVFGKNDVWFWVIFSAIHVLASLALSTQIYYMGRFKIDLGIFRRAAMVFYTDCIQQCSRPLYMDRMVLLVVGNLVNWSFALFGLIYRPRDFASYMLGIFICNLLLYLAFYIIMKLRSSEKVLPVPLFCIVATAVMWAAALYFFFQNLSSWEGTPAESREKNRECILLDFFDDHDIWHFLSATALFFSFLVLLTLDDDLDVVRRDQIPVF

human SIDT1 (hSIDT1) [2] = molecular target: T1, human SIDT1 (hSIDT1); assay: cryo-EM structure, […] A; GC/MS of purified protein; format: binding; conditions: endogenous, co-purified; allosteric; TM5/TM6/TM7 pocket at intracellular side; two molecules per protomer described (CLR1, CLR2); GDN, pH 6.0
[3] = molecular target: T2, human SIDT1 full length WT (Homo sapiens, UniProt Q9NXL6 1-827); assay: EMSA; pH 7.0; EMSA: 1 or 2 uM 46 bp dsRNA with 0-8 uM hSIDT1 (mutants 1-5 uM, 1 uM dsRNA, pH 5.0), 4 C, 2 h; electrophoresis in Tris-acetate buffer at pH 4.0-7.0; protein stock in 20 mM MES pH 6.0, 150 mM NaCl, 0.01% GDN; conditions: protein: recombinant; tags: C-terminal TEV site, FLAG, His10; chain copies: 2; blunt (implied by 46 bp)
T2 sequence: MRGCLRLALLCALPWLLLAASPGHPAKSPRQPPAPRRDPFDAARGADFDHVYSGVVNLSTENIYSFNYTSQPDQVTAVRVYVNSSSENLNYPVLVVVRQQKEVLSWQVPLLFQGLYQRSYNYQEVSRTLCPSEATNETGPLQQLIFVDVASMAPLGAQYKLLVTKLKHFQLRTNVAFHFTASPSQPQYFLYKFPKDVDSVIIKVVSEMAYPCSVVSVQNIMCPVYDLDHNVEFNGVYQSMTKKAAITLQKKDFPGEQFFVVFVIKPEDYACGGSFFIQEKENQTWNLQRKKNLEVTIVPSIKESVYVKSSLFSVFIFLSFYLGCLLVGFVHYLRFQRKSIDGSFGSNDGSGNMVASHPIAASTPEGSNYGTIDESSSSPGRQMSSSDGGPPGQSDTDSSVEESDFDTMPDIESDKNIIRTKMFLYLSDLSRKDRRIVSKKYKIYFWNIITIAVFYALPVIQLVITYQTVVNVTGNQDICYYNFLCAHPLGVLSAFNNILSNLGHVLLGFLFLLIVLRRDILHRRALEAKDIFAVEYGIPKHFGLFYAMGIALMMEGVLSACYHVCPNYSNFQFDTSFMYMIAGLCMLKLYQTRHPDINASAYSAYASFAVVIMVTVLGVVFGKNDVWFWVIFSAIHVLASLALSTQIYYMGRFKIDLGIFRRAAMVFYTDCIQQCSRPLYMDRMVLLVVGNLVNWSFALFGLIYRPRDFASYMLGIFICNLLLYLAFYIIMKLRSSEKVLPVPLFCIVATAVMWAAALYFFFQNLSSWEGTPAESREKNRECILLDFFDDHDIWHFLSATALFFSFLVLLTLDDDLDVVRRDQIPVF

CCCCCCCCCCCCC/C=C/[C@@H](O)[C@H](CO)NC(=O)CCCCCCCCCCCNc1ccc([N+](=O)[O-])c2nonc12 [C12 NBD ceramide]
TLC fluorescence ceramidase assay (human SIDT1 (hSIDT1) [1]): SIDT1 exhibited a ceramidase activity only in the presence of methyl β-cyclodextrin

CCCCCCCCCCCCCCC[C@@H](O)[C@H](CO)NC(=O)CCCCCCCCCCCNc1ccc([N+](=O)[O-])c2nonc12 [C12 NBD dihydroceramide]
TLC fluorescence ceramidase assay (human SIDT1 (hSIDT1) [1]): SIDT1 also harbors a ceramidase activity to ceramide and dihydroceramide

CC(C)CCC[C@@H](C)[C@H]1CC[C@H]2[C@@H]3CC=C4C[C@@H](O)CC[C@]4(C)[C@H]3CC[C@]12C [cholesterol]
cryo-EM structure, 2.77 A; GC/MS of purified protein (human SIDT1 (hSIDT1) [2]): endogenous cholesterol is assumed to be co-purified with SIDT1

B1: 46 bp dsRNA (dsRNA)
RNA 1: AUUCUGCGGAUUAUUUGGCAAAGGAAGCAUUGACACAUGCGCCAAU
RNA 2: AUUGGCGCAUGUGUCAAUGCUUCCUUUGCCAAAUAAUCCGCAGAAU
binding result [3]: binds
